Laboratory results reported in patent US11866405B2, “Substituted indazoles as IRAK4 inhibitors” (AstraZeneca AB, priority 2020, dated 2024).
pIC50: −log10 of the molar value. Where two headings read alike, the source gives them in different places.

Assays:
[1] = biological target: human recombinant IRAK4 protein (Homo sapiens (Human), UniProt Q9NWZ3); assay: IRAK4 enzyme assay (mass spectrometry readout); assay type: biochemical; settings: 3 mM ATP, 0.2 nM enzyme; geometric mean of at least n=2, * single experiment
Procedure, shortened: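 0.2 nM IRAK4 preincubated 15 min at room temperature with compound (10-point half-log series, top 1 μM or 10 μM) in pH 7.4 Tris buffer with 3 mM ATP; 10 μM peptide substrate added, 2 h at room temperature, formic acid stop. Phospho/unphospho peptide ratio by LC-MS/MS; potency from curve fit, geometric mean of n≥2 or single run.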

[2] = biological target: IRAK4 auto-phosphorylation (Homo sapiens (Human), UniProt Q9NWZ3); assay: IRAK4 phosphorylation cell assay in IL-1β-stimulated Karpas-299 cells; assay type: cell-based; settings: IL-1β 22.7 ng/mL, pIRAK4 (Thr345/Ser346), geometric mean of at least 2 experiments
Procedure, shortened: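 Karpas-299 cells were preincubated 1 h at 37 °C with compound (10-point half-log series, top 30 μM), then stimulated 10 min with 22.7 ng/mL IL-1β. Cells were fixed and stained for pIRAK4 (Thr345/Ser346), and per-cell fluorescence was quantified by high-content imaging. IC50 values are geometric means of at least 2 experiments.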

[3] = tested on: IL-1β stimulated IL-8 release in hTHP1 cells; assay: IL-1β-induced IL-8 release in human THP-1 monocyte cell line; assay type: cell-based; settings: THP-1 cells, IL-1β 1.8 ng/mL
Description: Effect of IRAK4 Inhibitors on IL-1β-Induced Cytokine Release in Human THP-1 Monocyte Cell Line
THP-1 cells were cultured in RPMI 1640 (Gibco 72400-021) containing 10% FBS (Gibco 10270-106), 1 mM Na-pyruvate (Gibco 11360-070) and 100 U/mL Penicillin-Streptomycin (Gibco 15140-122). Cells were plated at 5×10^4 cells per well in 384 well Echo certified plates (Labcyte PPT-0200) to which compounds had been added at various concentrations (10 point half log dose response with a final top concentration of 10 μM) using an Echo 655 (Labcyte Inc). The plate was incubated for 1 h at 37° C., then recombinant […] (R&D Systems 201-LB-025/CF) was added to a final concentration of 1.8 ng/mL. The plates were incubated at 37° C. for 18h. The plates were centrifuged at 250×g for four minutes, then 1.6 μL of the cell supernatant was transferred to a white low volume 384 well plate (Greiner #784075) using acoustic dispensing on an Echo 655. Next, 200 nL of acceptor bead (5 mg/mL) and biotinylated anti-IL-8 antibody (500 nM) was added using acoustic dispensing (beads and antibody were from a PerkinElmer 18 Alpha LISA detection kit, AL224C). The plate was sealed, briefly centrifuged, then incubated at room temperature for 1 h. Afterwards, 200 nL of donor bead solution (5 mg/mL) was added, the plate sealed and briefly centrifuged, then incubated for 1 h before being read on an Envision plate reader to allow determination the concentration of IRAK4 inhibitor required to effect a 50% reduction in the amount of IL-8 released following IL-1β stimulation in THP1 cells (Table 2). The quantified data were analysed in Genedata Screener 15 (Genedata AG). Data presented are the geometric mean of at least n=2, or as denoted by an * are obtained from a single experiment.

[4] = 18 h, geometric mean of at least n=2, * n = 1, read-out: hTHP1, IL1β stim, IL8 release red. IC50
[5] = Homo sapiens, THP-1, 18 h, geometric mean of at least n=2, * n = 1, read-out: hTHP1, IL1β stim, IL8 release red. IC50

Sequence of IRAK4 auto-phosphorylation (Q9NWZ3 whole entry): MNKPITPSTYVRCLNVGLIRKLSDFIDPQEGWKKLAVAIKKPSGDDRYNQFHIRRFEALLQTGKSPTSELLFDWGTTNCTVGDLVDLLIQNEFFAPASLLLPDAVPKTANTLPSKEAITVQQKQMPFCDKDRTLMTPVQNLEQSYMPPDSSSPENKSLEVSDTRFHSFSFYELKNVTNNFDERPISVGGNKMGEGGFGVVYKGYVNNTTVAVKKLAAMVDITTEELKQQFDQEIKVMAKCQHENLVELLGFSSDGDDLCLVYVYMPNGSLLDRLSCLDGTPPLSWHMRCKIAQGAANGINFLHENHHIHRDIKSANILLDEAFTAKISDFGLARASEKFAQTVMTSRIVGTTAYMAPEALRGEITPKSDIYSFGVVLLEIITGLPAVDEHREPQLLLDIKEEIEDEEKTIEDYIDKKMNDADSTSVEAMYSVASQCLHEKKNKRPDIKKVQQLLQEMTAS
Sequence of human recombinant IRAK4 protein (Q9NWZ3 whole entry): as above

pIC50 [1]	pIC50 [2]	pIC50 [3, 4]	pIC50 [3, 5]	SMILES
> 9.30	7.42	7.74	–	COc1cc2nn([C@@H]3CCC4(C[C@@H]3C)CN(C(C)=O)C4)cc2cc1C(=O)Nc1cnc2cccnn12 (single isomer, unassigned) [Example 64]
8.34	6.73	–	7.51	COc1cc2nn([C@H]3CC[C@H](O)C[C@@H]3C)cc2cc1C(=O)Nc1cnn2cccnc12 (single isomer, unassigned) [Example 38]
8.92	7.15	–	7.34	C[C@H]1C[C@@H](O)CC[C@@H]1n1cc2cc(C(=O)Nc3cnn4cccnc34)c(OC3CC3)cc2n1 (single isomer, unassigned) [Example 45]
> 9.30	7.64	7.74	–	COc1cc2nn([C@@H]3CCC4(C[C@H]3C)CN(C(C)=O)C4)cc2cc1C(=O)Nc1cnc2cccnn12 (single isomer, unassigned) [Example 66]
8.80	7.28	–	7.08	COc1cc2nn([C@H]3CC[C@@]4(CC3)CC(=O)N(C)C4)cc2cc1C(=O)Nc1cnc2cccnn12 [Example 68, N-(Imidazo[1,2-b]pyridazin-3-yl)-6-methoxy-2-((5s,8s)-2-methyl-3-oxo-2-azaspiro[4.5]decan-8-yl)-2H-indazole-5-carboxamide]

The remaining lines, values behind:

SMILES	pIC50 [1]	pIC50 [2]	pIC50 [3, 4]	pIC50 [3, 5]
COc1cc2nn([C@H]3CC[C@@H](O)CC3)cc2cc1C(=O)Nc1cnc2cccnn12 [Example 7, 2-((1s,4s)-4-Hydroxycyclohexyl)-N-(imidazo[1,2-b]pyridazin-3-yl)-6-methoxy-2H-indazole-5-carboxamide]	8.22	6.95	7.32	–
CC(=O)N1CC2(CC[C@@H](n3cc4cc(C(=O)Nc5cnn6cccnc56)c(OC5CC5)cc4n3)[C@@H](C)C2)C1 (single isomer, unassigned) [Example 31]	9.10	7.15	7.49	–
O=C(Nc1cnn2cccnc12)c1cc2cn([C@@H]3CCC[C@H](O)C3)nc2cc1OC1CC1 [Example 17, 6-cyclopropoxy-2-((1R,3S)-3-hydroxycyclohexyl)-N-(pyrazolo[1,5-a]pyrimidin-3-yl)-2H-indazole-5-carboxamide]	9.00	7.30	–	7.62
CC(=O)N1CC2(CC[C@@H](n3cc4cc(C(=O)Nc5cnn6cccnc56)c(OC5CC5)cc4n3)[C@H](C)C2)C1 (single isomer, unassigned) [Example 29]	9.30	7.51	–	7.70
COc1cc2nn(C3CCC4(CC3)CN(C(C)=O)C4)cc2cc1C(=O)Nc1cnc2cccnn12 [Example 21, 2-(2-Acetyl-2-azaspiro[3.5]nonan-7-yl)-N-(imidazo[1,2-b]pyridazin-3-yl)-6-methoxy-2H-indazole-5-carboxamide]	9.15	7.44	–	7.77
